The assay concerns the target T1, GJB2 (Gap junction protein beta-2; Connexin 26, Cx26); GFP-GJB2 (Homo sapiens, UniProt P29033).
T1 construct: 7QEQ is printed as human GJB2 for docking only
In words: microscale thermophoresis (Monolith NT.[…]), GFP-GJB2 in HEK293T lysate. In kind it is binding.

Broadly, the Kd is a measure of binding affinity in units of concentration. A higher Kd goes with a looser complex. As to `O=C(/C=C/c1ccc(O)c2c1[C@H](C(=O)O[C@H](Cc1ccc(O)c(O)c1)C(=O)O)[C@@H](c1ccc(O)c(O)c1)O2)O[C@H](Cc1ccc(O)c(O)c1)C(=O)O` [Salvianolic acid B], the Kd stood at 8.52 µM. This counts as single-digit micromolar.

For the origin of these results see publication PMC11497106, “GJB2 Promotes HCC Progression by Activating Glycolysis Through Cytoplasmic Translocation and Generating a Suppressive Tumor Microenvironment Based on Single Cell RNA Sequencing” (Advanced Science, 2024).
